Data: patent publication US20040156869A1, “2-substituted quinazolin-4-ylamine analogues” (Neurogen Corporation, priority 2002, published 2004)

Biological target: human capsaicin receptor (VR1) (Homo sapiens, UniProt Q8NER1)
Assay: Capsaicin receptor binding assay ([3H]RTX competition, VR1-transfected HEK293 membranes)

human capsaicin receptor (VR1), sequence (Q8NER1 whole entry): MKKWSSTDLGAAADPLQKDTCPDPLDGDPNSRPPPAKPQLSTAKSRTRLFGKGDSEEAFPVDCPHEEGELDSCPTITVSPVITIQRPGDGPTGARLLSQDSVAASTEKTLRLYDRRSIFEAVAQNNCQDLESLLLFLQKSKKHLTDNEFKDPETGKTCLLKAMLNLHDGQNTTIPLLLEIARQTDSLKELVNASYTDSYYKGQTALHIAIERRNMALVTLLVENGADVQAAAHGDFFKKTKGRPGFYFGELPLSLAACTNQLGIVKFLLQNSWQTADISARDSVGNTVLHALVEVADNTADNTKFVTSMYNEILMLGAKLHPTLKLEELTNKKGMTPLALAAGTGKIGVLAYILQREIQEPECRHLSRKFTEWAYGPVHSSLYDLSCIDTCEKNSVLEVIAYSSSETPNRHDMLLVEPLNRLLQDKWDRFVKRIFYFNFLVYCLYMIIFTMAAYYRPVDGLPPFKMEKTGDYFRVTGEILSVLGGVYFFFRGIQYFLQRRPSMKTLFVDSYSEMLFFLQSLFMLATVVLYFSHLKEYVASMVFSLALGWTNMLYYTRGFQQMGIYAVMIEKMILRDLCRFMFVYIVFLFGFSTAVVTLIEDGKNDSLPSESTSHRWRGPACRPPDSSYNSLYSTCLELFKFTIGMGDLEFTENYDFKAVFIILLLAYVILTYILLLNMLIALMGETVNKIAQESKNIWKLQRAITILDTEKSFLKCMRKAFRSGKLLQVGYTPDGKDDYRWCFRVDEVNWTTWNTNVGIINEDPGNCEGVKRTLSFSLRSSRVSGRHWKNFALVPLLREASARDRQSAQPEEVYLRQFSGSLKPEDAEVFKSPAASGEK

Row | SMILES | Ki
1 | CC(C)COCc1nc(Nc2ccc(C(F)(F)F)cc2)c2ccc(-c3ncccc3Cl)nc2n1 [Compound 176, [7-(3-Chloro-pyridin-2-yl)-2-isobutoxymethyl-pyrido[2,3-d]pyrimidin-4-yl]-(4-trifluoromethyl-phenyl)-amine] | < 1000 nM
2 | CC(C)COCc1nc(Nc2ccc(C(F)(F)F)nc2)c2ccc(-c3ncccc3Cl)nc2n1 [Compound 177, [7-(3-Chloro-pyridin-2-yl)-2-isobutoxymethyl-pyrido[2,3-d]pyrimidin-4-yl]-(6-trifluoromethyl-pyridin-3-yl)-amine] | < 1000 nM
3 | Cc1cc(Nc2nc(COCC(C)C)nc3nc(-c4ncccc4Cl)ccc23)ccc1C(F)(F)F [Compound 178, [7-(3-Chloro-pyridin-2-yl)-2-isobutoxymethyl-pyrido[2,3-d]pyrimidin-4-yl]-(3-methyl-4-trifluoromethyl-phenyl)-amine] | < 1000 nM
4 | CC(C)COCc1nc(Nc2ccc(C(C)(C)C#N)cc2)c2ccc(-c3ncccc3Cl)nc2n1 [Compound 179, 2-{4-[7-(3-Chloro-pyridin-2-yl)-2-isobutoxymethyl-pyrido[2,3-d]pyrimidin-4-ylamino]-phenyl}-2-methyl-propionitrile] | < 1000 nM
5 | CC(C)COCc1nc(Nc2ccc(OC(F)(F)F)cc2)c2ccc(-c3ncccc3Cl)nc2n1 [Compound 180, [7-(3-Chloro-pyridin-2-yl)-2-isobutoxymethyl-pyrido[2,3-d]pyrimidin-4-yl]-(4-trifluoromethoxy-phenyl)-amine] | < 1000 nM
6 | CC(C)COCc1nc(Nc2ccc(S(=O)(=O)C(F)(F)F)cc2)c2ccc(-c3ncccc3Cl)nc2n1 [Compound 181, [7-(3-Chloro-pyridin-2-yl)-2-isobutoxymethyl-pyrido[2,3-d]pyrimidin-4-yl]-(4-trifluoromethanesulfonyl-phenyl)-amine] | < 1000 nM
7 | COCc1nc(Nc2ccc(C(F)(F)F)c(C)c2)c2ccc(-c3ncccc3C(F)(F)F)nc2n1 [Compound 182, [2-Methoxymethyl-7-(3-trifluoromethyl-pyridin-2-yl)-pyrido[2,3-d]pyrimidin-4-yl]-(3-methyl-4-trifluoromethyl-phenyl)-amine] | < 1000 nM
8 | Cc1cc(Nc2nc(COCC(C)C)nc3nc(-c4ncccc4C)ccc23)ccc1C(F)(F)F [Compound 183, [2-Isobutoxymethyl-7-(3-methyl-pyridin-2-yl)-pyrido[2,3-d]pyrimidin-4-yl]-(3-methyl-4-trifluoromethyl-phenyl)-amine] | < 1000 nM
9 | CCOCc1nc(Nc2ccc(C(F)(F)F)c(C)c2)c2ccc(-c3ncccc3Cl)nc2n1 [Compound 184, [7-(3-Chloro-pyridin-2-yl)-2-ethoxymethyl-pyrido[2,3-d]pyrimidin-4-yl]-(3-methyl-4-trifluoromethyl-phenyl)-amine] | < 1000 nM
10 | O=S(=O)(c1ccc(Nc2nc(CO)nc3cc(-c4ncccc4C(F)(F)F)ccc23)cc1)N1CCCCC1 [Compound 186, [4-[4-(Piperidine-1-sulfonyl)-phenylamino]-7-(3-trifluoromethyl-pyridin-2-yl)-quinazolin-2-yl]-methanol] | < 1000 nM
11 | CN(C(C)(C)C)S(=O)(=O)c1ccc(Nc2nc(CO)nc3cc(-c4ncccc4C(F)(F)F)ccc23)cc1 [Compound 187, N-tert-Butyl-4-[2-hydroxymethyl-7-(3-trifluoromethyl-pyridin-2-yl)-quinazolin-4-ylamino]-N-methyl-benzenesulfonamide] | < 1000 nM
12 | COCc1nc(Nc2ccc(OC(F)(F)F)cc2)c2ccc(-c3ncccc3C(F)(F)F)nc2n1 [Compound 188, [2-Methoxymethyl-7-(3-trifluoromethyl-pyridin-2-yl)-pyrido[2,3-d]pyrimidin-4-yl]-(4-trifluoromethoxy-phenyl)-amine] | < 1000 nM
13 | CC(C)COCc1nc(Nc2ccc(OC(F)(F)F)cc2)c2ccc(-c3ncccc3C(F)(F)F)nc2n1 [Compound 189, [2-Isobutoxymethyl-7-(3-trifluoromethyl-pyridin-2-yl)-pyrido[2,3-d]pyrimidin-4-yl]-(4-trifluoromethoxy-phenyl)-amine] | < 1000 nM
14 | Cc1cccnc1-c1ccc2c(Nc3ccc(OC(F)(F)F)cc3)nc(COCC(C)C)nc2n1 [Compound 190, [2-Isobutoxymethyl-7-(3-methyl-pyridin-2-yl)-pyrido[2,3-d]pyrimidin-4-yl]-(4-trifluoromethoxy-phenyl)-amine] | < 1000 nM
15 | COCc1nc(Nc2ccc(C(C)(C)C)nc2)c2ccc(-c3ncccc3C(F)(F)F)nc2n1 [Compound 191, (6-tert-Butyl-pyridin-3-yl)-[2-methoxymethyl-7-(3-trifluoromethyl-pyridin-2-yl)-pyrido[2,3-d]pyrimidin-4-yl]-amine] | < 1000 nM
16 | CC(C)COCc1nc(Nc2ccc(C(C)(C)C)nc2)c2ccc(-c3ncccc3C(F)(F)F)nc2n1 [Compound 192, (6-tert-Butyl-pyridin-3-yl)-[2-isobutoxymethyl-7-(3-trifluoromethyl-pyridin-2-yl)-pyrido[2,3-d]pyrimidin-4-yl]-amine] | < 1000 nM
17 | Cc1cccnc1-c1ccc2c(Nc3ccc(C(C)(C)C)nc3)nc(COCC(C)C)nc2n1 [Compound 193, (6-tert-Butyl-pyridin-3-yl)-[2-isobutoxymethyl-7-(3-methyl-pyridin-2-yl)-pyrido[2,3-d]pyrimidin-4-yl]-amine] | < 1000 nM
18 | CC(C)COCc1nc(Nc2ccc(C(C)(C)C)nc2)c2ccc(-c3ncccc3Cl)nc2n1 [Compound 194, (6-tert-Butyl-pyridin-3-yl)-[7-(3-chloro-pyridin-2-yl)-2-isobutoxymethyl-pyrido[2,3-d]pyrimidin-4-yl]-amine] | < 1000 nM
19 | COCc1nc(Nc2ccc(C(F)(F)F)c(C)c2)c2ccc(-c3ncccc3Cl)nc2n1 [Compound 197, [7-(3-Chloro-pyridin-2-yl)-2-methoxymethyl-pyrido[2,3-d]pyrimidin-4-yl]-(3-methyl-4-trifluoromethyl-phenyl)-amine] | < 1000 nM
20 | CC(C)(C)c1ccc(Nc2nc(CO)nc3cc(-c4ncccc4C(F)(F)F)cnc23)cc1 [Compound 201, [4-(4-tert-Butyl-phenylamino)-7-(3-trifluoromethyl-pyridin-2-yl)-pyrido[3,2-d]pyrimidin-2-yl]-methanol] | < 1000 nM
21 | O=S(=O)(c1ccc(Nc2nc(CO)nc3cc(-c4ncccc4C(F)(F)F)cnc23)cc1)N1CCCCC1 [Compound 202, [4-[4-(Piperidine-1-sulfonyl)-phenylamino]-7-(3-trifluoromethyl-pyridin-2-yl)-pyrido[3,2-d]pyrimidin-2-yl]-methanol] | < 1000 nM
22 | CN(C(C)(C)C)S(=O)(=O)c1ccc(Nc2nc(CO)nc3cc(-c4ncccc4C(F)(F)F)cnc23)cc1 [Compound 203, N-tert-Butyl-4-[2-hydroxymethyl-7-(3-trifluoromethyl-pyridin-2-yl)-pyrido[3,2-d]pyrimidin-4-ylamino]-N-methyl-benzenesulfonamide] | < 1000 nM

The remaining lines, values ahead:

Row | Ki | SMILES
23 | < 1000 nM | CCOC(=O)c1nc(Nc2ccc(C(F)(F)F)cc2)c2ccc(-c3ncccc3C)nc2n1 [Compound 172, 7-(3-Methyl-pyridin-2-yl)-4-(4-trifluoromethyl-phenylamino)-pyrido[2,3-d]pyrimidine-2-carboxylic acid ethyl ester]
24 | < 1000 nM | CCOC(=O)c1nc(Nc2ccc(C(F)(F)F)cc2)c2ccc(-c3ncccc3C(F)(F)F)nc2n1 [Compound 173, 4-(4-Trifluoromethyl-phenylamino)-7-(3-trifluoromethyl-pyridin-2-yl)-pyrido[2,3-d]pyrimidine-2-carboxylic acid ethyl ester]
25 | < 1000 nM | Cc1cccnc1-c1ccc2c(Nc3ccc(C(F)(F)F)cc3)nc(C3CCOC3)nc2n1 (stereo not drawn) [Compound 174, [7-(3-Methyl-pyridin-2-yl)-2-(tetrahydro-furan-3-yl)-pyrido[2,3-d]pyrimidin-4-yl]-(4-trifluoromethyl-phenyl)-amine]
26 | < 1000 nM | Cc1cccnc1-c1ccc2c(Nc3ccc(C(C)(C)C#N)cc3)nc(C3CCOC3)nc2n1 (stereo not drawn) [Compound 175, 2-Methyl-2-{4-[7-(3-methyl-pyridin-2-yl)-2-(tetrahydro-furan-3-yl)-pyrido[2,3-d]pyrimidin-4-ylamino]-phenyl}-propionitrile]
27 | < 1000 nM | CCOC(=O)c1nc(Nc2ccc(C(C)(C)C)cc2)c2ccc(-c3ncccc3C)nc2n1 [Compound 185, 4-(4-tert-Butyl-phenylamino)-7-(3-methyl-pyridin-2-yl)-pyrido[2,3-d]pyrimidine-2-carboxylic acid ethyl ester]
28 | < 1000 nM | COCc1nc(Nc2ccc(OC(F)(F)F)cc2)c2ccc(-c3ncccc3Cl)nc2n1 [Compound 195, [7-(3-Chloro-pyridin-2-yl)-2-methoxymethyl-pyrido[2,3-d]pyrimidin-4-yl]-(4-trifluoromethoxy-phenyl)-amine]
29 | < 1000 nM | COCc1nc(Nc2ccc(OC(F)(F)F)cc2)c2ccc(-c3ncccc3C)nc2n1 [Compound 196, [2-Methoxymethyl-7-(3-methyl-pyridin-2-yl)-pyrido[2,3-d]pyrimidin-4-yl]-(4-trifluoromethoxy-phenyl)-amine]
30 | < 1000 nM | COCc1nc(Nc2ccc(C(F)(F)F)c(C)c2)c2ccc(-c3ncccc3C)nc2n1 [Compound 198, [2-Methoxymethyl-7-(3-methyl-pyridin-2-yl)-pyrido[2,3-d]pyrimidin-4-yl]-(3-methyl-4-trifluoromethyl-phenyl)-amine]
31 | < 1000 nM | COCc1nc(Nc2ccc(C(C)(C)C)nc2)c2ccc(-c3ncccc3Cl)nc2n1 [Compound 199, (6-tert-Butyl-pyridin-3-yl)-[7-(3-chloro-pyridin-2-yl)-2-methoxymethyl-pyrido[2,3-d]pyrimidin-4-yl]-amine]
32 | < 1000 nM | COCc1nc(Nc2ccc(C(C)(C)C)nc2)c2ccc(-c3ncccc3C)nc2n1 [Compound 200, (6-tert-Butyl-pyridin-3-yl)-[2-methoxymethyl-7-(3-methyl-pyridin-2-yl)-pyrido[2,3-d]pyrimidin-4-yl]-amine]
33 | < 1000 nM | Cc1cccnc1-c1ccc2c(Nc3ccc(C(C)(C)C)cc3)nc(CO)nc2n1 [Compound 204, [4-(4-tert-Butyl-phenylamino)-7-(3-methyl-pyridin-2-yl)-pyrido[2,3d]pyrimidin-2-yl]-methanol]
